In the assay the test system is production of TNF by monocytes activated with bacterial lipopolysaccharide (LPS). Put plainly: Lipopolysaccharide-activated monocyte TNF production assay. The format is cell-based. As to conditions: Homo sapiens; whole blood monocyte assay (LPS induced TNF release). The method, then:
Test compounds were evaluated in vitro for the ability to inhibit the production of TNF by monocytes activated with bacterial lipopolysaccharide (LPS). Fresh residual source leukocytes (a byproduct of plateletpheresis) were obtained from a local blood bank, and peripheral blood mononuclear cells (PBMCs) were isolated by density gradient centrifugation on Ficol-Paque Plus (Pharmacia). PBMCs were suspended at 2×10^6/mL in DMEM supplemented to contain 2% FCS, 10 mM, 0.3 mg/mL […], 100 U/mL penicillin G and […] streptomycin sulfate (complete media). Cells were plated into Falcon flat bottom, 96 well culture plates (200 μL/well) and cultured overnight at 37° C. and 6% CO2. Non-adherent cells were removed by washing with 200 μl/well of fresh medium.
Test compounds were dissolved in […]. Compound stock solutions were prepared to an initial concentration of […]. Stocks were diluted initially to 20-200 μM in complete media. Nine two-fold serial dilutions of each compound were then prepared in complete medium.
One hundred microliters of each test compound dilution were added to microtiter wells containing adherent monocytes and 100 μL complete medium. Monocytes were cultured with test compounds for 60 min at which time 25 μL of complete medium containing 30 ng/mL lipopolysaccharide from E. coli K532 were added to each well. Cells were cultured an additional 4 hrs. Culture supernatants were then removed and TNF presence in the supernatants was quantified using an ELISA.
Flat bottom, 96 well Corning High Binding ELISA plates were coated overnight (4° C.) with 150 μL/well of 3 μg/mL murine anti-human TNF-α MAb (R&D Systems #MAB210). Wells were then blocked for 1 h at room temperature with 200 μL/well of CaCl2-free ELISA buffer supplemented to contain 20 mg/mL BSA (standard ELISA buffer: […], 150 mM NaCl, 2 mM CaCl2, 0.15 mM thimerosal, pH 7.4). Plates were washed and replenished with 100 μL of test supernatants (diluted 1:3) or standards. Standards consisted of eleven 1.5-fold serial dilutions from a stock of I ng/mL recombinant human TNF (R&D Systems). Plates were incubated at room temperature for 1 h on orbital shaker (300 rpm), washed and replenished with 100 μL/well of 0.5 μg/mL goat anti-human TNF-α (R&D systems #AB-210-NA) biotinylated at a 4:1 ratio. Plates were incubated for 40 min, washed and replenished with 100 μL/well of alkaline phosphatase-conjugated streptavidin (Jackson ImmunoResearch #016-050-084) at 0.02 μg/mL. Plates were incubated 30 min, washed and replenished with 200 μL/well of 1 mg/mL of p-nitrophenyl phosphate. After 30 min, plates were read at 405 nm on a Vmax plate reader.
Standard curve data were fit to a second order polynomial and unknown TNF-α concentrations determined from their OD by solving this equation for concentration. TNF concentrations were then plotted vs. test compound concentration using a second order polynomial. This equation was then used to calculate the concentration of test compounds causing a 50% reduction in TNF production.
In the case of `COc1ccc(-c2nncc3cc(-c4cc(C(N)=O)ccc4C)ccc23)c(C)c1` [Example 202, 3-[1-(4-methoxy-2-methylphenyl)phthalazin-6-yl]-4-methylbenzamide], the IC50 (in general, the concentration that inhibits the measured activity by half) was at most 5 µM. In turn, `Cc1ccc(C(N)=O)cc1-c1ccc2c(N3CCOC[C@H]3C)nncc2c1` [Example 82, 4-Methyl-3-{1-[(3R)-3-methylmorpholin4-yl]phthalazin-6-yl}benzamide] yielded a 50% inhibitory concentration (IC50) of at most 5 µM. Turning to `Cc1ccc(C(=O)NC2CC2)cc1-c1ccc2c(N3C[C@H](C)OC[C@@H]3C)nncc2c1` [Example 123, N-cyclopropyl-3-{1-[(2S,5S)-2,5-dimethylmorpholin-4-yl]phthalazin-6-yl}-4-methylbenzamide], the IC50 is at most 5 µM. In turn, `COc1c(C)cccc1-c1nncc2cc(-c3cc(C(N)=O)ccc3C)ccc12` [Example 204, 3-[1-(2-methoxy-3-methylphenyl)phthalazin-6-yl]-4-methylbenzamide] showed an IC50 of at most 5 µM. `Fc1ccc(Oc2ccc3c(-c4ccc(CN5CCOCC5)cc4)nncc3c2)cc1` [Example 333, 6-(4-fluorophenoxy)-1-[4-(morpholin-4-ylmethyl)phenyl]phthalazine] showed an IC50 of at most 5 µM. `Cc1ccc(C(N)=O)cc1-c1ccc2c(N3CCN4CCC[C@H]4C3)nncc2c1` [Example 282, 3-{1-[(8aS)-hexahydropyrrolo[1,2-a]pyrazin-2(1H)-yl]phthalazin-6-yl}-4-methylbenzamide] yielded an IC50 of at most 5 µM. Consider `Cc1ccc(C(=O)NC2CC2)cc1-c1ccc2c(-c3ccc(C(C)(C)C(=O)O)cc3)nncc2c1` [Example 205, 2-[4-(6-{5-[(cyclopropylamino)carbonyl]-2-methylphenyl}phthalazin-1-yl)phenyl]-2-methylpropanoic acid], for which the IC50 was at most 5 µM. As to `COc1cc(Cl)ccc1-c1nncc2cc(-c3cc(C(=O)NC4CC4)ccc3C)ccc12` [Example 224, 3-[1-(4-chloro-2-methoxyphenyl)phthalazin-6-yl]-N-cyclopropyl-4-methylbenzamide], the IC50 is at most 5 µM. `Cc1ccccc1-c1nncc2cc(Oc3cccc(C(=O)O)c3)ccc12` [Example 354, 3-{[1-(2-methylphenyl)phthalazin-6-yl]oxy}benzoic acid] yielded an IC50 of at most 5 µM. `Cc1ccc2c(N)nsc2c1-c1ccc2c(N3CCOC[C@@H]3C)nncc2c1` [Example 367, 6-methyl-7-{1-[(3S)-3-methylmorpholin-4-yl]phthalazin-6-yl}-1,2-benzisothiazol-3-amine] registered an IC50 of at most 5 µM.

In turn, `Cc1ccc(C(N)=O)cc1-c1ccc2c(N3CCSCC3)nncc2c1` [Example 128, 4-methyl-3-(1-thiomorpholin-4-ylphthalazin-6-yl)benzamide] returned an IC50 of at most 5 µM. Consider `Cc1ccc(C(N)=O)cc1-c1ccc2c(N3CCNC[C@@H]3C)nncc2c1` [Example 146, 4-methyl-3-{1-[(2S)-2-methylpiperazin-1-yl]phthalazin-6-yl}benzamide], for which the IC50 was at most 5 µM. For `C[C@H]1COCCN1c1nncc2cc(-c3c(Cl)ccc4c(NC5CC5)noc34)ccc12` [Example 401, 6-chloro-N-cyclopropyl-7-{1-[(3S)-3-methylmorpholin-4-yl]phthalazin-6-yl}-1,2-benzisoxazol-3-amine] the value was at most 5 µM; for `COc1ccc(-c2nncc3cc(-c4cc(C(N)=O)ccc4C)ccc23)c(OC)c1` [Example 226, 3-[1-(2,4-dimethoxyphenyl)phthalazin-6-yl]-4-methylbenzamide], at most 5 µM; for `Cc1ccc(C(N)=O)cc1-c1ccc2c(OC3CCCN(C)C3)nncc2c1` (centres unmarked) [Example 316, 4-methyl-3-{1-[(1-methylpiperidin-3-yl)oxy]phthalazin-6-yl}benzamide], at most 5 µM. For the molecule `Cc1ccc(C(N)=O)cc1-c1ccc2c(N3C[C@H](C)OC[C@@H]3C)nncc2c1` [Example 119, 3-{1-[(2S,5S)-2,5-dimethylmorpholin-4-yl]phthalazin-6-yl}-4-methylbenzamide], the IC50 is at most 5 µM. In turn, `COc1ccc(-c2nncc3cc(-c4cc(C(=O)NC5CC5)ccc4C)ccc23)c(C(F)(F)F)c1` [Example 258, N-cyclopropyl-3-{1-[4-methoxy-2-(trifluoromethyl)phenyl]phthalazin-6-yl}-4-methylbenzamide] returned an IC50 of at most 5 µM. Molecule `Cc1ccc(C(=O)NC2CC2)cc1-c1ccc2c(N3CC4CC3CO4)nncc2c1` (centres unmarked) [Example 27, 3-(1-(5-oxa-2-aza-bicyclo[2.2.1]heptan-2-yl)phthalazin-6-yl)-N-cyclopropyl-4-methylbenzamide] yielded a half-maximal inhibitory concentration (IC50) of at most 5 µM. For `Cc1ccc(C(=O)NC2CC2)cc1-c1ccc2c(N3C[C@@H]4C[C@H]3CO4)nncc2c1` [Example 120, N-cyclopropyl-4-methyl-3-{1-[(1S,4S)-2-oxa-5-azabicyclo[2.2.1]hept-5-yl]phthalazin-6-yl}benzamide] the value was at most 5 µM; for `Cc1ccc(C(=O)NC2CC2)cc1-c1ccc2c(N3CCC[C@H]3C)nncc2c1` [Example 296, N-cyclopropyl-4-methyl-3-{1-[(2R)-2-methylpyrrolidin-1-yl]phthalazin-6-yl}benzamide], at most 5 µM. In turn, `Cc1ccc(C(N)=O)cc1-c1ccc2c(N(C)C)nncc2c1` [Example 281, 3-[1-(dimethylamino)phthalazin-6-yl]-4-methylbenzamide] yielded an IC50 of at most 5 µM. `Cc1ccc(C(=O)NC2CC2)cc1-c1ccc2c(-c3ccc(Cl)cc3C(F)(F)F)nncc2c1` [Example 210, 3-{1-[4-chloro-2-(trifluoromethyl)phenyl]phthalazin-6-yl}-N-cyclopropyl-4-methylbenzamide] yielded an IC50 of at most 5 µM.

On to `Cc1ccc(C(=O)NC2CCC2)cc1-c1ccc2c(N3CCN4C(=O)OC[C@@H]4C3)nncc2c1` [Example 269, 3-{1-[(8aS)-3-oxotetrahydro[1,3]oxazolo[3,4-a]pyrazin-7(1H)-yl]phthalazin-6-yl}-N-cyclobutyl-4-methylbenzamide], for which the IC50 was at most 5 µM. `CNC(=O)c1ccc(C)c(-c2ccc3c(NC(C)C)nncc3c2)c1` [Example 10, 3-(1-(isopropylamino)phthalazin-6-yl)-N,4-dimethylbenzamide] came in with an IC50 of at most 5 µM. Consider `CNc1noc2c(-c3ccc4c(N5CCOC[C@@H]5C)nncc4c3)c(Cl)ccc12` [Example 15, 6-chloro-N-methyl-7-(1-((S)-3-methylmorpholino)phthalazin-6-yl)benzo[d]isoxazol-3-amine], for which the IC50 was at most 5 µM. The molecule `Cc1ccc(C(N)=O)cc1-c1ccc2c(N3CCOCC3)nncc2c1` [Example 175, 4-methyl-3-(1-morpholin-4-ylphthalazin-6-yl)benzamide] came in with an IC50 of at most 5 µM. As for `Cc1ccc(C(N)=O)cc1-c1ccc2c(N3C[C@@H](C)NC[C@@H]3C)nncc2c1` [Example 122, 3-{1-[(2S,5R)-2,5-dimethylpiperazin-1-yl]phthalazin-6-yl}-4-methylbenzamide], the figure is at most 5 µM; as for `COc1ccc(C(F)(F)F)cc1NC(=O)c1ccc(C)c(-c2ccc3c(N4CCOCC4)nncc3c2)c1` [Example 43, N-(2-methoxy-5-(trifluoromethyl)phenyl)-4-methyl-3-(1-morpholinophthalazin-6-yl)benzamide], at most 5 µM.

In the case of `Cc1ccc(C(N)=O)cc1-c1ccc2c(Oc3ccc(F)cc3)nncc2c1` [Example 301, 3-[1-(4-fluorophenoxy)phthalazin-6-yl]-4-methylbenzamide], the 50% inhibitory concentration (IC50) is at most 5 µM.

On to `Cc1ccc(C(=O)NC2CC2)cc1-c1ccc2c(N3CCNC(=O)CC3)nncc2c1` [Example 275, N-cyclopropyl-4-methyl-3-[1-(5-oxo-1,4-diazepan-1-yl)phthalazin-6-yl]benzamide], for which the IC50 was at most 5 µM. Consider `COc1cc(F)ccc1-c1nncc2cc(-c3cc(C(=O)NC4CC4)ccc3C)ccc12` [Example 262, N-cyclopropyl-3-[1-(4-fluoro-2-methoxyphenyl)phthalazin-6-yl]-4-methylbenzamide], for which the IC50 was at most 5 µM. Molecule `Cc1ccc(C(N)=O)cc1-c1ccc2c(N3C[C@@H]4C[C@H]3CO4)nncc2c1` [Example 115, 4-methyl-3-{1-[(1S,4S)-2-oxa-5-azabicyclo[2.2.1]hept-5-yl]phthalazin-6-yl}benzamide] had a half-maximal inhibitory concentration (IC50) of at most 5 µM.

Source of the values: patent publication US7759337B2, “Phthalazine compounds and methods of use” (Amgen Inc., priority 2005, dated 2010).
